Experimental findings from patent US11702409B2, “Pyrazolyl derivatives useful as anti-cancer agents” (NOVARTIS AG, priority 2019, dated 2023) are described below.

In this assay the target is KRasG12C (M1-K169, biotinylated on the N-terminus) (Homo sapiens (Human), UniProt P01116, G12C). The experiment in a line: Covalent competition assay (scintillation proximity assay, competition with radiolabeled covalent probe Compound B). It counts as binding. The following applies: in vitro KRASG12C activity; 10 nM KRasG12C:GDP, 25 nM radio-ligand and 475 nM unlabelled ligand, incubated 2 hours; read-out: Covalent Competition Assay IC50. The method, boiled down: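 Biotinylated KRasG12C (M1-K169):GDP incubated 2 h with agitation with serially diluted compounds premixed with a fixed concentration of radiolabeled covalent probe; scintillation proximity read-out of competition for covalent modification. Buffer 20 mM Tris-HCl pH 7.5, 150 mM NaCl, 0.1 mM MgCl2, 0.01% Tween-20. IC50 from 4-parameter fit.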
(In general: SPA uses beads or plates that emit light when radiolabelled molecules are held near them.)

Broadly, the IC50 is the concentration needed to halve the response being measured. On to `C=CC(=O)N1CC2(CC(n3nc(-c4ccc(O)cc4F)c(-c4c(Cl)c(C)cc5[nH]ncc45)c3C)C2)C1` (single isomer, unassigned) [Example 58a], for which the IC50 is 64 nM.

In the case of `C=CC(=O)N1CC2(CC(n3nc(-c4ccc(O)cc4F)c(-c4c(Cl)c(C)cc5[nH]ncc45)c3C)C2)C1` (single isomer, unassigned) [Example 58b], the IC50 is over 5000 nM.

On to `C=CC(=O)N1CC2(CC(n3nc(-c4cc5ccncc5[nH]4)c(-c4c(Cl)c(C)cc5[nH]ncc45)c3C)C2)C1` (single isomer, unassigned) [Example 59a, 1-(6-(4-(5-chloro-6-methyl-1H-indazol-4-yl)-5-methyl-3-(1H-pyrrolo[2,3-c]pyridin-2-yl)-1H-pyrazol-1-yl)-2-azaspiro[3.3]heptan-2-yl)prop-2-en-1-one], for which the IC50 turned out to be 173 nM.

Regarding `C=CC(=O)N1CC2(CC(n3nc(-c4cc5ccncc5[nH]4)c(-c4c(Cl)c(C)cc5[nH]ncc45)c3C)C2)C1` (single isomer, unassigned) [Example 59b, 1-(6-(4-(5-chloro-6-methyl-1H-indazol-4-yl)-5-methyl-3-(1H-pyrrolo[2,3-c]pyridin-2-yl)-1H-pyrazol-1-yl)-2-azaspiro[3.3]heptan-2-yl)prop-2-en-1-one], the IC50 was over 50000 nM.

Regarding `C=CC(=O)N1CC2(CC(n3nc(-c4ccc(OCCOC)cc4F)c(-c4c(Cl)c(C)cc5[nH]ncc45)c3C)C2)C1` (single isomer, unassigned) [Example 60a, 1-(6-{(4M)-4-(5-Chloro-6-methyl-1H-indazol-4-yl)-3-[2-fluoro-4-(2-methoxyethoxy)phenyl]-5-methyl-1H-pryazol-1-yl}-2-azaspiro[3.3]heptan-2-yl)prop2-en-1-one], the IC50 was 51 nM.

Regarding `C=CC(=O)N1CC2(CC(n3nc(-c4ccc(OCCOC)cc4F)c(-c4c(Cl)c(C)cc5[nH]ncc45)c3C)C2)C1` (single isomer, unassigned) [Example 60b, 1-(6-(4-(5-chloro-6-methyl-1H-indazol-4-yl)-3-(2-fluoro-4-(2-methoxyethoxy)phenyl)-5-methyl-1H-pyrazol-1-yl)-2-azaspiro[3.3]heptan-2-yl)prop-2-en-1-one], the IC50 was over 5000 nM.

Take `C=CC(=O)N1CC2(CC(n3nc(-c4ccc(NCCOC)cc4F)c(-c4c(Cl)c(C)cc5[nH]ncc45)c3C)C2)C1` (single isomer, unassigned) [Example 61a, 1-(6-(4-(5-chloro-6-methyl-1H-indazol-4-yl)-3-(2-fluoro-4-((2-methoxyethyl)amino)phenyl)-5-methyl-1H-pyrazol-1-yl)-2-azaspiro[3.3]heptan-2-yl)prop-2-en-1-one]: the 50% inhibitory concentration (IC50) was 27 nM.

`C=CC(=O)N1CC2(CC(n3nc(-c4ccc(NCCOC)cc4F)c(-c4c(Cl)c(C)cc5[nH]ncc45)c3C)C2)C1` (single isomer, unassigned) [Example 61b, 1-(6-(4-(5-chloro-6-methyl-1H-indazol-4-yl)-3-(2-fluoro-4-((2-methoxyethyl)amino)phenyl)-5-methyl-1H-pyrazol-1-yl)-2-azaspiro[3.3]heptan-2-yl)prop-2-en-1-one]: the IC50 is over 5000 nM.

As to `C=CC(=O)N1CC2(CC(n3nc(-c4ccc(C(=O)NCCOC)cc4)c(-c4c(Cl)c(C)cc5[nH]ncc45)c3C)C2)C1` (single isomer, unassigned) [Example 62a, 4-(1-(2-acryloyl-2-azaspiro[3.3]heptan-6-yl)-4-(5-chloro-6-methyl-1H-indazol-4-yl)-5-methyl-1H-pyrazol-3-yl)-N-(2-methoxyethyl)benzamide], the 50% inhibitory concentration (IC50) amounted to 45 nM.

With `C=CC(=O)N1CC2(CC(n3nc(-c4ccc(C(=O)NCCOC)cc4)c(-c4c(Cl)c(C)cc5[nH]ncc45)c3C)C2)C1` (single isomer, unassigned) [Example 62b, 4-(1-(2-acryloyl-2-azaspiro[3.3]heptan-6-yl)-4-(5-chloro-6-methyl-1H-indazol-4-yl)-5-methyl-1H-pyrazol-3-yl)-N-(2-methoxyethyl)benzamide], the IC50 was determined as 19300 nM.

Turning to `C=CC(=O)N1CC2(CC(n3nc(-c4ccc(C(=O)NCCOC)c(F)c4)c(-c4c(Cl)c(C)cc5[nH]ncc45)c3C)C2)C1` (single isomer, unassigned) [Example 63a], the IC50 amounted to 88 nM.

As to `C=CC(=O)N1CC2(CC(n3nc(-c4ccc(C(=O)NCCOC)c(F)c4)c(-c4c(Cl)c(C)cc5[nH]ncc45)c3C)C2)C1` (single isomer, unassigned) [Example 63b], the IC50 stood at 33800 nM.

`C=CC(=O)N1CC2(CC(n3nc(-c4ccc(C(=O)NCCOC)nc4)c(-c4c(Cl)c(C)cc5[nH]ncc45)c3C)C2)C1` (single isomer, unassigned) [Example 64a]: the concentration for half-maximal inhibition (IC50) is 55 nM.

Take `C=CC(=O)N1CC2(CC(n3nc(-c4ccc(C(=O)NCCOC)nc4)c(-c4c(Cl)c(C)cc5[nH]ncc45)c3C)C2)C1` (single isomer, unassigned) [Example 64b]: the IC50 came to 24500 nM.

As for `C=CC(=O)N1CC2(CC(n3nc(-c4ccc(C(=O)NCCN(C)C)cc4)c(-c4c(Cl)c(C)cc5[nH]ncc45)c3C)C2)C1` (single isomer, unassigned) [Example 65a], the IC50 is 46 nM.

Take `C=CC(=O)N1CC2(CC(n3nc(-c4ccc(C(=O)NCCN(C)C)cc4)c(-c4c(Cl)c(C)cc5[nH]ncc45)c3C)C2)C1` (single isomer, unassigned) [Example 65b]: the IC50 was determined as 17400 nM.

Regarding `C=CC(=O)N1CC2(CC(n3nc(-c4ccc(C(=O)N(C)CCOC)cc4)c(-c4c(Cl)c(C)cc5[nH]ncc45)c3C)C2)C1` (single isomer, unassigned) [Example 66a, 4-(1-(2-acryloyl-2-azaspiro[3.3]heptan-6-yl)-4-(5-chloro-6-methyl-1H-indazol-4-yl)-5-methyl-1H-pyrazol-3-yl)-N-(2-methoxyethyl)-N-methylbenzamide], the IC50 was found to be 240 nM.

For the compound `C=CC(=O)N1CC2(CC(n3nc(-c4ccc(C(=O)N(C)CCOC)cc4)c(-c4c(Cl)c(C)cc5[nH]ncc45)c3C)C2)C1` (single isomer, unassigned) [Example 66b, 4-(1-(2-acryloyl-2-azaspiro[3.3]heptan-6-yl)-4-(5-chloro-6-methyl-1H-indazol-4-yl)-5-methyl-1H-pyrazol-3-yl)-N-(2-methoxyethyl)-N-methylbenzamide], the IC50 was 4300 nM.

Consider `C=CC(=O)N1CC2(CC(n3nc(-c4ccc(C(=O)N(C)CC(C)(C)O)cc4)c(-c4c(Cl)c(C)cc5[nH]ncc45)c3C)C2)C1` (single isomer, unassigned) [Example 67a], for which the IC50 worked out at 202 nM.

As for `C=CC(=O)N1CC2(CC(n3nc(-c4ccc(C(=O)N(C)CC(C)(C)O)cc4)c(-c4c(Cl)c(C)cc5[nH]ncc45)c3C)C2)C1` (single isomer, unassigned) [Example 67b], the IC50 was 12100 nM.

As for `C=CC(=O)N1CC2(CC(n3nc(-c4ccc(C(=O)O)cc4)c(-c4c(Cl)c(C)cc5[nH]ncc45)c3C)C2)C1` (single isomer, unassigned) [Example 68a], the IC50 came out at 59 nM.

Take `C=CC(=O)N1CC2(CC(n3nc(-c4ccc(C(=O)O)cc4)c(-c4c(Cl)c(C)cc5[nH]ncc45)c3C)C2)C1` (single isomer, unassigned) [Example 68b]: the IC50 was 1900 nM.

In the case of `C=CC(=O)N1CC2(CC(n3nc(-c4ccc5nn(CCOC)cc5c4)c(-c4c(Cl)c(C)cc5[nH]nc(N)c45)c3C)C2)C1` (single isomer, unassigned) [Example 69a, 1-(6-{(4M)-4-(3-Amino-5-chloro-6-methyl-1H-indazol-4-yl)-3-[2-(2-methoxyethyl)-2H-indazol-5-yl]-5-methyl-1H-pyrazol-1-yl}-2-azaspiro[3.3]heptan-2-yl)prop-2-en-1-one], the IC50 turned out to be 9 nM.

For `C=CC(=O)N1CC2(CC(n3nc(-c4ccc5nn(CCOC)cc5c4)c(-c4c(Cl)c(C)cc5[nH]nc(N)c45)c3C)C2)C1` (single isomer, unassigned) [Example 69b, 1-(6-(4-(3-amino-5-chloro-6-methyl-1H-indazol-4-yl)-3-(2-(2-methoxyethyl)-2H-indazol-5-yl)-5-methyl-1H-pyrazol-1-yl)-2-azaspiro[3.3]heptan-2-yl)prop-2-en-1-one], the IC50 turned out to be 840 nM.

As for `C=CC(=O)N1CC2(CC(n3nc(-c4ccccc4)c(-c4c(Cl)c(C)cc5[nH]nc(N)c45)c3C)C2)C1` (single isomer, unassigned) [Example 70a, 1-{6-[(4M)-4-(3-Amino-5-chloro-6-methyl-1H-indazol-4-yl)-5-methyl-3-phenyl-1H-pyrazol-1-yl]-2-azaspiro[3.3]heptan-2-yl}prop-2-en-1-one], the IC50 was 30 nM.

Regarding `C=CC(=O)N1CC2(CC(n3nc(-c4ccccc4)c(-c4c(Cl)c(C)cc5[nH]nc(N)c45)c3C)C2)C1` (single isomer, unassigned) [Example 70b, 1-(6-(4-(3-amino-5-chloro-6-methyl-1H-indazol-4-yl)-5-methyl-3-phenyl-1H-pyrazol-1-yl)-2-azaspiro[3.3]heptan-2-yl)prop-2-en-1-one], the IC50 turned out to be 2100 nM.

Take `C=CC(=O)N1CC2(CC(n3nc(-c4ccc5nnccc5c4)c(-c4c(Cl)c(C)cc5[nH]ncc45)c3C)C2)C1` (single isomer, unassigned) [Example 71a, 1-(6-(4-(5-chloro-6-methyl-1H-indazol-4-yl)-3-(cinnolin-6-yl)-5-methyl-1H-pyrazol-1-yl)-2-azaspiro[3.3]heptan-2-yl)prop-2-en-1-one]: the half-maximal inhibitory concentration (IC50) was 101 nM.

In the case of `C=CC(=O)N1CC2(CC(n3nc(-c4ccc5nnccc5c4)c(-c4c(Cl)c(C)cc5[nH]ncc45)c3C)C2)C1` (single isomer, unassigned) [Example 71b, 1-(6-(4-(5-chloro-6-methyl-1H-indazol-4-yl)-3-(cinnolin-6-yl)-5-methyl-1H-pyrazol-1-yl)-2-azaspiro[3.3]heptan-2-yl)prop-2-en-1-one], the IC50 was over 5000 nM.

`C=CC(=O)N1CC2(CC(n3nc(-c4ccc5c(c4)CS(=O)(=O)C5)c(-c4c(Cl)c(C)cc5[nH]ncc45)c3C)C2)C1` (single isomer, unassigned) [Example 72a]: the IC50 is 306 nM.
